In patent US20240368164A1, “PURINE NUCLEOSIDES, THEIR INTERMEDIATES, AND METHODS OF PREPARATION THEREOF” (Astrocyle Pharmaceuticals, Inc., priority 2021, published 2024):

What was measured:
P2Y1R = P2Y1R (Homo sapiens, UniProt P47900); conditions: reference 6; cited from earlier work
Human A3R = biological target: T1, Human A3R (Homo sapiens, UniProt P0DMS8); assay: Radioligand binding at human A3 adenosine receptor ([125I]I-AB-MECA, CHO cell membranes); conditions: n = 1; read-out: Affinity (nM) at Human A3R
T1 construct: expressed in transfected cells
T1 sequence (P0DMS8 1-318): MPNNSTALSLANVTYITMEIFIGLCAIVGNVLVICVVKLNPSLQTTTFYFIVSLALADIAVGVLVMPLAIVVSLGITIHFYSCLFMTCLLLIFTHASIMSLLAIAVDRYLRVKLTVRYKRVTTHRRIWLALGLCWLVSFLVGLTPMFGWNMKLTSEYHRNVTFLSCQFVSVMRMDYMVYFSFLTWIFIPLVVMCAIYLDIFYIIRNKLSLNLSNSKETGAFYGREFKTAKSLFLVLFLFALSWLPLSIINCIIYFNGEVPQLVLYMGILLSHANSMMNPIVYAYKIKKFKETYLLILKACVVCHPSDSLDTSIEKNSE
Method: [3H]R—N^6-Phenylisopropyladenosine ([3H]R-PIA, 63 Ci/mmol), [^3H](2-[p-(2-carboxyethyl)phenyl-ethylamino]-5′-N-ethylcarboxamido-adenosine) ([^3H]CGS21680, 40.5 Ci/mmol) and [^125I]N^6-(4-amino-3-iodobenzyl)adenosine-5′-N-methyluronamide ([^125I]I-AB-MECA, 2200 Ci/mmol) were purchased from Perkin-Elmer Life and Analytical Science (Boston, MA). Test compounds were prepared as 5 mM stock solutions in DMSO and stored frozen.
Cell Culture and Membrane Preparation—CHO cells stably expressing the recombinant hA1 and hA3ARs and HEK293 cells stably expressing the hA2AAR were cultured in Dulbecco's modified Eagle medium (DMEM) and F12 (1:1) supplemented with 10% fetal bovine serum, 100 units/mL penicillin, 100 μg/mL streptomycin, and 2 μmol/mL glutamine. In addition, 800 μg/mL geneticin was added to the A2A media, while 500 μg/mL hygromycin was added to the A1 and A3 media. After harvesting, cells were homogenized and suspended in PBS. Cells were then centrifuged at 240 g for 5 min, and the pellet was resuspended in 50 mM Tris-HCl buffer (pH 7.5) containing 10 mM MgCl2. The suspension was homogenized and was then ultra-centrifuged at 14,330 g for 30 min at 4° C. The resultant pellets were resuspended in Tris buffer, incubated with adenosine deaminase (3 units/mL) for 30 min at 37° C. The suspension was homogenized with an electric homogenizer for 10 sec, pipetted into 1 mL vials and then stored at −80° C. until the binding experiments. The protein concentration was measured using the BCA Protein Assay Kit from Pierce Biotechnology, Inc. (Rockford, IL).
Binding assays: Into each tube in the binding assay was added 50 μL of increasing concentrations of the test ligand in Tris-HCl buffer (50 mM, pH 7.5) containing 10 mM MgCl2, 50 μL of the appropriate agonist radioligand, and finally 100 μL of membrane suspension. For the A1AR (22 μg of protein/tube) the radioligand used was [^3H]R-PIA (final concentration of 3.5 nM). For the A2AAR (20 μg/tube) the radioligand used was [^3H]CGS21680 (10 nM). For the A3AR ([…]) the radioligand used was [^125I]I-AB-MECA (0.34 nM). Nonspecific binding was determined using a final concentration of 10 μM NECA diluted with the buffer. The mixtures were incubated at 25° C. for 60 min in a shaking water bath. Binding reactions were terminated by filtration through Brandel GF/B filters under a reduced pressure using a M-24 cell harvester (Brandel, Gaithersburg, MD). Filters were washed three times with 3 mL of 50 mM ice-cold Tris-HCl buffer (pH 7.5). Filters for A1 and A2AAR binding were placed in scintillation vials containing 5 mL of Hydrofluor scintillation buffer and counted using a Perkin Elmer Liquid Scintillation Analyzer (Tri-Carb 2810TR). Filters for A3AR binding were counted using a Packard Cobra II T-counter. The Ki values were determined using GraphPad Prism for all assays.
A3R binding of selected compounds. Using methods described herein, the affinity of selected compounds at the A3 receptor was measured.

[1] = Plasma protein binding (free fraction); assay type: in vitro ADME, mouse
From the text: (§1) Example 3 of U.S. Pat. No. 9,789,131, which is incorporated herein by reference, describes assays for determining the plasma and brain free fraction of certain compounds such as I-1. Compounds described herein may be evaluated using such assays or similar variants thereof.

[2] = Nonspecific brain tissue binding (free fraction); assay type: in vitro ADME, mouse; conditions: brain tissue
From the text: as §1

[3] = test system: traumatic brain injury (TBI) in mice; assay: Mouse traumatic brain injury (TBI) model; assay type: in vivo
Method: Animals and traumatic brain injury (TBI): TBI is performed with a controlled closed skull injury model as described in Talley-Watts et al. 2012 (J. Neurotrauma 30, 55-66). Following the method described therein, a pneumatic impact device is used to generate a moderate TBI leaving the skull and dura matter intact. To achieve this, C57BL/6 mice are anesthetized with isoflurane (3% induction, 1% maintenance) in 100% oxygen. A body temperature of 37° C. is maintained using a temperature-controlled heated surgical table. A small midline incision is made on the scalp using aseptic surgical techniques. A 5 mm stainless steel disc is positioned on the skull and fixed using superglue on the right parietal bone between bregma and lamda over the somatosensory cortex. The mouse is then positioned on a stage directly under the pneumatic impact tip. […] Mice are placed in a Thermo-Intensive Care Unit (Braintree Scientific model FV-1; 37° C.; 27% O2) and monitored until fully awake and moving freely. […]
Western Blot Analysis for GFAP: At selected survival times, mice are anesthetized under isoflurane and sacrificed. […] The homogenate is transferred to a 2 mL tube and centrifuged at 1000 g for 10 minutes at 4° C. and the supernatant is collected and analyzed. Protein concentration is determined by the BCA assay using a 1:50 dilution. […]

[4] = test system: photothrombosis-induced stroke in mice; assay: Mouse photothrombotic stroke model; assay type: in vivo; conditions: mouse, stroke
Method: Photothrombosis-induced Stroke: Photothrombosis is performed as described in Zheng et al 2010 (PloS One 5 (12): e14401). In brief, Rose Bengal is a fluorescent dye that when injected into the vasculature and excited, generates singlet oxygen that damages the endothelial wall and induces a local thrombosis (clot). Using this technique, mice are given a 0.1 mL tail-vein injection of sterilized Rose Bengal (RB, Sigma, U.S.A.) in artificial cerebral spinal fluid (aCSF). The RB concentration is 20 mg/mL. A cortical region is centered in the imaging field and illuminated with a green laser (543 nm, 5 mW) using a 0.8-NA 40× water-immersion objective (Nikon, Tokyo). The clot formation is monitored in real time until the targeted vessel or downstream capillaries are firmly occluded. Stable clots are subsequently identified by a non-fluorescent vessel segmentation ending with highly fluorescent regions. […] Treatments, at doses such as 0.5 μmol/kg are introduced via intraperitoneal injections (i.p.). For experiments with A3 receptor antagonist MRS1523, mice are administered intraperitoneal injections (2 mg/kg) at the 0 and 2 hour timepoints to ensure receptor antagonism throughout the course of the study.
Animals and Photothrombosis-induced Stroke: Stroke is performed as described in Zheng et al 2010 (PloS One 5 (12): e14401). Female C57Bl/6 mice (4-6 months) are used in this study. From the methods of this manuscript: Mice are anesthetized at 3% isoflurane with 100% oxygen and subsequently maintained at 1% isoflurane through a nosecone. Depth of anesthesia is monitored and regulated according to vital signs, pinch withdrawal and eye blinks. Body temperature is maintained at 37° C. by a feedback-controlled heating pad (Gaymar T/Pump). Vital signs including oxygen saturation, respiratory rate, and heart rate are continuously monitored by using the MouseOx system (STARR Life Sciences). […]
Post photothrombotic infarction evaluation. The size of cerebral infarcts is evaluated using 2,3,5-Triphenyltetrazolium chloride (TTC) staining as described in Zheng et al 2010 (PloS One 5 (12): e14401). […]

A3AR = biological target: T2, A3AR (Homo sapiens, UniProt P0DMS8); conditions: reference 5; cited from earlier work
T2 sequence (P0DMS8 1-318): T1 sequence (P0DMS8 1-318)

Chain of P2Y1R (P47900 whole entry): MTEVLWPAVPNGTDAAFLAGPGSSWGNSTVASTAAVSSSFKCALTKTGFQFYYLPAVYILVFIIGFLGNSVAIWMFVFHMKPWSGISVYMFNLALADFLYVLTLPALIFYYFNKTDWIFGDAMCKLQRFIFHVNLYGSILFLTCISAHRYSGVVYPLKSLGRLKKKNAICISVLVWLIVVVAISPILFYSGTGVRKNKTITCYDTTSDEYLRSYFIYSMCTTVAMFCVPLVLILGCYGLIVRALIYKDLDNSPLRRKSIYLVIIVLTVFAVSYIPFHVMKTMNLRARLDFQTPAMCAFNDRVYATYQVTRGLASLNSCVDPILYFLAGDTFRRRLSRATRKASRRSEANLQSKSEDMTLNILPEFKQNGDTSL

Structure (SMILES) | Ki (Human A3R) [nM] | also measured
CSc1nc(N)c2ncn([C@H]3C(O)[C@@H](O)[C@]4(COP(=O)(O)OP(=O)(O)O)C[C@H]34)c2n1 (stereo partly drawn) [MRS2365] | – | Ki (P2Y1R): 0.4 nM
Nc1nc(SCc2ccccc2)nc2c1ncn2[C@H]1[C@H](O)[C@H](O)[C@]2(CO)C[C@H]12 [Compound I-5, (1R,2R,3S,4R,5S)-4-(6-Amino-2-(benzylthio)-9H-purin-9-yl)-1-(hydroxymethyl)bicyclo[3.1.0]hexane-2,3-diol] | 55 | –
Nc1nc(SC2CCCCC2)nc2c1ncn2[C@H]1[C@H](O)[C@H](O)[C@]2(CO)C[C@H]12 [Compound I-4, (1R,2R,3S,4R,5S)-4-(6-Amino-2-(cyclohexylthio)-9H-purin-9-yl)-1-(hydroxymethyl)bicyclo[3.1.0]hexane-2,3-diol] | 1170 | –
CNC(=O)[C@H]1O[C@@H](n2cnc3c(NCc4cccc(I)c4)nc(Cl)nc32)[C@H](O)[C@@H]1O [Cl-IB-MECA, reference compound] | – | free (unbound) fraction in plasma [1]: 0.002; free (unbound) fraction in brain [2]: 0.002; efficacy in mouse TBI model [3]: weakly active; efficacy in mouse photothrombotic stroke model [4]: inactive
CCSc1nc(N)c2ncn([C@H]3[C@H](O)[C@H](O)[C@]4(CO)C[C@H]34)c2n1 [Compound I-2, (1R,2R,3S,4R,5S)-4-(6-Amino-2-(ethylthio)-9H-purin-9-yl)-1-(hydroxymethyl)bicyclo[3.1.0]hexane-2,3-diol] | 909 | –
CNC(=O)[C@@]12C[C@@H]1[C@@H](n1cnc3c(NCc4cccc(Cl)c4)nc(SC)nc31)C(O)[C@H]2O (stereo partly drawn) [MRS3611] | – | Ki (A3AR): 1.5 nM
Nc1nc(SCCc2ccccc2)nc2c1ncn2[C@H]1[C@H](O)[C@H](O)[C@]2(CO)C[C@H]12 [Compound I-6, (1R,2R,3S,4R,5S)-4-(6-Amino-2-(phenethylthio)-9H-purin-9-yl)-1-(hydroxymethyl)bicyclo[3.1.0]hexane-2,3-diol] | 379 | –
COc1nc(N)c2ncn([C@H]3[C@H](O)[C@H](O)[C@]4(CO)C[C@H]34)c2n1 [Compound I-7, (1R,2R,3S,4R,5S)-4-(6-Amino-2-methoxy-9H-purin-9-yl)-1-(hydroxymethyl)bicyclo[3.1.0]hexane-2,3-diol] | 1050 | –
CCCCCCSc1nc(N)c2ncn([C@H]3[C@H](O)[C@H](O)[C@]4(CO)C[C@H]34)c2n1 [Compound I-3, (1R,2R,3S,4R,5S)-4-(6-Amino-2-(hexylthio)-9H-purin-9-yl)-1-(hydroxymethyl)bicyclo[3.1.0]hexane-2,3-diol] | 504 | –
